Test results published in ChEMBL document CHEMBL4229466, “Conformational Propensity and Biological Studies of Proline Mutated LR Peptides Inhibiting Human Thymidylate Synthase and Ovarian Cancer Cell Growth” (J Med Chem, 2018).
Activity calls are given as the source filed them. The rule behind the calls is not given here. Non-standard residues stand in square brackets, D forms with d. Residues, ends and D or L forms follow the SMILES beside them.

Columns and labels:
IGROV-1 [1] = test: Effect on DHFR protein expression in human IGROV1 cells by Western blot analysis; format: functional, cell-based
IGROV-1 [2] = test: Effect on TS protein expression in human IGROV1 cells by Western blot analysis; format: functional, cell-based
IGROV-1 [3] = test: Effect on HSP90 protein expression in human IGROV1 cells by Western blot analysis; format: functional, cell-based
IGROV-1 [4] = test: Downregulation of TRAP1 protein levels in human IGROV1 cells by Western blot analysis; format: functional, cell-based
[5] = target: Thymidylate synthase (Homo sapiens) (UniProt P04818); test: Inhibition of thymidylate synthase in human IGROV1 cell lysate using [5-3H]dUMP as substrate assessed as decrease in residual activity at 5 uM after 60 mins by liquid scintillation counting analysis relative to control
Sequence of Thymidylate synthase (Homo sapiens) (P04818 2-313 limits assumed): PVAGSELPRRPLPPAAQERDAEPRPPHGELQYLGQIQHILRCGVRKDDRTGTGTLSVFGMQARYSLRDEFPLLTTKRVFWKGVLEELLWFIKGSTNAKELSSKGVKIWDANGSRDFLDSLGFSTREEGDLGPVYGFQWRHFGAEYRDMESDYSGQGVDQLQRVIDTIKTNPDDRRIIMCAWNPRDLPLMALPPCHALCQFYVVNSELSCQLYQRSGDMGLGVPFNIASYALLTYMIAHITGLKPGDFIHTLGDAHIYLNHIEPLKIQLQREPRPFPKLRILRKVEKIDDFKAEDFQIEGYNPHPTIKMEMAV

C13 = test: Cytotoxicity against human C13 cells after 72 hrs; format: functional, cell-based; conditions: C13, 72 h
2008 = test: Cytotoxicity against human 2008 cells; format: functional, cell-based
IGROV-1 [6] = test: Cytotoxicity against human IGROV1 cells after 72 hrs; format: functional, cell-based; conditions: IGROV-1, 72 h

Molecule	Activity (IGROV-1 [1])	Activity (IGROV-1 [2])	Activity (IGROV-1 [3])	Activity (IGROV-1 [4])	inhibition [5]	IC50 (C13)	IC50 2008	IC50 (IGROV-1 [6])
Nc1nc2[nH]cc(CCc3ccc(C(=O)N[C@@H](CCC(=O)O)C(=O)O)cc3)c2c(=O)[nH]1	Active	Active	Active					
CC(C)C[C@H](NC(=O)[C@@H](CCC(N)=O)NC(=O)[C@H](CS)NC(=O)[C@H](CO)NC(=O)[C@@H](N)CC(C)C)C(=O)N[C@@H](Cc1ccc(O)cc1)C(=O)N[C@@H](CCC(N)=O)C(=O)N[C@@H](CCCNC(=N)N)C(=O)O (H-LSC[dQ]LYQR-OH)				Active				
O=c1[nH]cc(F)c(=O)[nH]1 [FLUOROURACIL]					Active	12.1 µM	6 µM	10.6 µM
H-LSCPLYQR-OH	Active	Active	Active	Active	25%	3.55 to 8.1 µM	0.96 to 1.57 µM	4.32 to 12.1 µM
H-LSCQLYPR-OH					> 30%	3.55 to 8.1 µM	0.96 to 1.57 µM	4.32 µM
H-LSCQLYQR-OH						9.5 µM	4.6 µM	8.2 µM
H-LSPQLYQR-OH	Active	Active	Active		25%	3.55 to 8.1 µM	0.96 to 1.57 µM	6.2 µM
